Laboratory results published in patent US20260072046A1 (priority 2015, published 2026).
Like-named read-outs stand apart in the source and are kept apart here.

How the values were obtained:
[1] = LC-MS/MS quantification of drugs in oral fluid of live and post-mortem dogs; conditions: for detected and quantified in the sublingual region (oral fluid): Example 4, post-mortem dog, sublingual area
[2] = LC-MS/MS quantification of drugs in muscle tissue fluid from remains of a post-mortem individual
[3] = LC/MS/MS of muscle tissue homogenate (conventional method); conditions: Example 5, remains of decedent; homogenate muscle tissue:plasma 1:4
[4] = human; for concentration detected in the sublingual region (oral fluid) / concentration detected in the submandibular gland (oral fluid): female
[5] = post-mortem dog SF10049, FIG. 28
[6] = PM50019 001a, liquid leaked from container
[7] = PM50019 001b, fluid expelled by pressing muscle tissue

Compound: CC(=O)Nc1ccc(O)cc1 [acetaminophen]
- detected and quantified in the sublingual region (oral fluid) [1]: 12.20 ng/mL
- concentration in oral fluid [1, 5]: 12.20 ng/mL

Compound: CC(N)Cc1ccccc1 (stereo not shown) [amphetamine]
- concentration from the muscle tissue sample (muscle tissue fluid) [2, 6]: 10.4 ng/mL
- concentration from the muscle tissue sample (muscle tissue fluid) [2, 7]: 5.7 ng/mL
- concentration from the muscle tissue homogenate [3]: < 100 ng/g

Compound: CCCC(C)(COC(N)=O)COC(=O)NC(C)C (stereo not shown) [carisoprodol]
- concentration detected in the sublingual region (oral fluid) [4]: 49.20 ng/mL
- concentration detected in the submandibular gland (oral fluid) [4]: 54.38 ng/mL

Compound: O=C1CN=C(c2ccccc2Cl)c2cc([N+](=O)[O-])ccc2N1 [clonazepam]
- concentration in oral fluid [4]: 0.34 ng/mL

Compound: COc1ccc2c3c1O[C@H]1[C@@H](O)C=C[C@H]4[C@@H](C2)N(C)CC[C@@]341 [codeine]
- concentration detected in the sublingual region (oral fluid) [4]: 5.64 ng/mL
- concentration detected in the submandibular gland (oral fluid) [4]: 0.0 ng/mL
- concentration in oral fluid [4]: 4.63 ng/mL

Compound: CN(C)CCC=C1c2ccccc2C=Cc2ccccc21 [cyclobenzaprine]
- concentration in oral fluid [4]: 4.74 ng/mL

Compound: NCC1(CC(=O)O)CCCCC1 [gabapentin]
- detected and quantified in the sublingual region (oral fluid) [1]: 205.00 ng/mL
- concentration in oral fluid [1, 5]: 205.00 ng/mL

Compound: CNC1(c2ccccc2Cl)CCCCC1=O (stereo not shown) [ketamine]
- detected and quantified in the sublingual region (oral fluid) [1]: 408.30 ng/mL
- concentration in oral fluid ([1]; live dog SF10085, FIG. 21): 598.30 ng/mL
- concentration in oral fluid ([1]; live dog SF10086, FIG. 22): 592.10 ng/mL
- concentration in oral fluid ([1]; live dog SF10087, FIG. 23): 1914.90 ng/mL
- concentration in oral fluid ([1]; live dog SF10088, FIG. 24): 426.20 ng/mL
- concentration in oral fluid ([1]; live dog SF10092, FIG. 25): 844.20 ng/mL
- concentration in oral fluid [1, 5]: 408.30 ng/mL
- concentration in oral fluid ([1]; post-mortem dog SF10093, FIG. 26): 229.50 ng/mL

Compound: CN[C@@H](C)Cc1ccccc1 [methamphetamine]
- concentration from the muscle tissue sample (muscle tissue fluid) [2, 6]: 113.1 ng/mL
- concentration from the muscle tissue sample (muscle tissue fluid) [2, 7]: 46.1 ng/mL
- concentration from the muscle tissue homogenate [3]: 448+63 ng/g
- concentration in oral fluid ([1]; live dog SF10048, FIG. 27): 16.20 ng/mL

Compound: CN1CC[C@]23c4c5ccc(O)c4O[C@H]2[C@@H](O)C=C[C@H]3[C@H]1C5 [morphine]
- concentration detected in the sublingual region (oral fluid) [4]: 197.42 ng/mL
- concentration detected in the submandibular gland (oral fluid) [4]: 12.34 ng/mL

Compound: COc1ccc2c3c1O[C@H]1C(=O)CC[C@@]4(O)[C@@H](C2)N(C)CC[C@]314 [oxycodone]
- concentration in oral fluid [4]: 5.53 ng/mL

Compound: COc1cccc(C2(O)CCCCC2CN(C)C)c1 (stereo not shown) [tramadol]
- detected and quantified in the sublingual region (oral fluid) [1]: 49.70 ng/mL
- concentration in oral fluid [1, 5]: 49.70 ng/mL
